These results are taken from ChEMBL document CHEMBL5465560, “Selectivity Literature for EUbOPEN Chemogenomic Library” (2024).

Experiment [1] has as its target T1, cGMP-dependent protein kinase 2 (Homo sapiens) (UniProt Q13237).
T1 sequence (whole entry): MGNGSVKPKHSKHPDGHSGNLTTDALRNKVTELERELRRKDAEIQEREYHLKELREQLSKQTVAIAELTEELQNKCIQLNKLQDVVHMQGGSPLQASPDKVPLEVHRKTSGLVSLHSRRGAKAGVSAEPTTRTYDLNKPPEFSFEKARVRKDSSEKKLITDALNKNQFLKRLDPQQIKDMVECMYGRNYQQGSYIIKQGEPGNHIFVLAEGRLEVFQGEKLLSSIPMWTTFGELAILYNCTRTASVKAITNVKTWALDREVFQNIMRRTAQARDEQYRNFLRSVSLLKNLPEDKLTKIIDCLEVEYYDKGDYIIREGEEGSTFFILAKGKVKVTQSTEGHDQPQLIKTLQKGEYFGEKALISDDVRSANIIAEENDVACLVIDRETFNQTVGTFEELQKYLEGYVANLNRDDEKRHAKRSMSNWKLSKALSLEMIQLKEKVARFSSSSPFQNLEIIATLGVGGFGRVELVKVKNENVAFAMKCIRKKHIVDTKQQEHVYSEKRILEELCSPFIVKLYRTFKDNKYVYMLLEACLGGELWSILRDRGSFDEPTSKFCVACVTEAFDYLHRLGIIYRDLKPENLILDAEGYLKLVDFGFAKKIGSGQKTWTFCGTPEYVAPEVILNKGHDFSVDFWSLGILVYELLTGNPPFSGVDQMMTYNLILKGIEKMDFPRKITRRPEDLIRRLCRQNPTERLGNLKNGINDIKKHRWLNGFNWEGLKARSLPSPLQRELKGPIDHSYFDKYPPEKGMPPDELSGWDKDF
The experiment can be described thus: Selectivity interaction (Kinase panel (Z-LYTE Assay)) EUB0001632a PRKG2. The following applies: at 10 µM.

In experiment [2] the target is T2, Serine/threonine-protein kinase TNNI3K (Homo sapiens) (UniProt Q59H18).
T2 sequence (whole entry): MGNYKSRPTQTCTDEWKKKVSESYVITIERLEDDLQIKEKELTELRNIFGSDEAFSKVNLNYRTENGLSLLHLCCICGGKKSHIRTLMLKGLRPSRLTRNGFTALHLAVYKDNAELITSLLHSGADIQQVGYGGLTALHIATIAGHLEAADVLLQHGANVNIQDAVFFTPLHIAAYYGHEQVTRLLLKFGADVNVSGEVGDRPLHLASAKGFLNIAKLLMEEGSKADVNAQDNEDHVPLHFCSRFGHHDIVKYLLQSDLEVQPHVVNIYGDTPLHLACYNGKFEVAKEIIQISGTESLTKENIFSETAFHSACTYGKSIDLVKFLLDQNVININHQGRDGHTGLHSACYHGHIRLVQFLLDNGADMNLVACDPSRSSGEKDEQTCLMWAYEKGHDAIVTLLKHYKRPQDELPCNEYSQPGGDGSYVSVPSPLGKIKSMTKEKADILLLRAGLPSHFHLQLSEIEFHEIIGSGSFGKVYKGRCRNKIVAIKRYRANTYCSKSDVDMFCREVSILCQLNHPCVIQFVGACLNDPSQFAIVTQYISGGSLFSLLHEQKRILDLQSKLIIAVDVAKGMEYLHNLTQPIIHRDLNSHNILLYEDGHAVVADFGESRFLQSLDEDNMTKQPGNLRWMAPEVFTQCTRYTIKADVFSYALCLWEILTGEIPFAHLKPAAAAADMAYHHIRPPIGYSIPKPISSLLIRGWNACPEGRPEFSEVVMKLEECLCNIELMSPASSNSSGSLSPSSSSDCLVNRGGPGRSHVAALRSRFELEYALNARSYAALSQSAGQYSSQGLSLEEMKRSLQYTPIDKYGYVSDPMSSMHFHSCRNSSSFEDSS
Put plainly: Selectivity interaction (KinomeScan (DiscoverX)) EUB0001619a TNNI3K. The following applies: at 1 µM.

Experiment [3] has as its target Rho-associated protein kinase 1 (Homo sapiens) (UniProt Q13464). The experiment can be described thus: Selectivity interaction (KinomeScan (DiscoverX)) EUB0000695a ROCK1. The following applies: at 100 nM.
The target in experiment [4] is Phosphorylase b kinase gamma catalytic chain, skeletal muscle/heart isoform (Homo sapiens) (UniProt Q16816). Put plainly: Selectivity interaction (KinomeScan (DiscoverX)) EUB0000695a PHKG1. Conditions: at 100 nM.
Experiment [5] addresses T3, Dual specificity mitogen-activated protein kinase kinase 7 (Homo sapiens) (UniProt O14733).
T3 sequence (whole entry): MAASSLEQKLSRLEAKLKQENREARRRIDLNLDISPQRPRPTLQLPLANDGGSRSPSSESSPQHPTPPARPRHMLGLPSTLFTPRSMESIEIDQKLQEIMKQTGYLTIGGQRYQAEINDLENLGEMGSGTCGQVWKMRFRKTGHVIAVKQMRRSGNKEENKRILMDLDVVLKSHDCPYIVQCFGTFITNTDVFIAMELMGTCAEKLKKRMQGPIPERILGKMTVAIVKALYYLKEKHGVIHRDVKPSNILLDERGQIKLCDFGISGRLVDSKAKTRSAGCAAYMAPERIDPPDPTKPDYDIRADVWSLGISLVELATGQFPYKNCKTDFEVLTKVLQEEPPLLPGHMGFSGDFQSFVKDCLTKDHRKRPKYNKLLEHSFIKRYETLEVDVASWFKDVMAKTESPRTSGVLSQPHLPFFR
Put plainly: Selectivity interaction (KinomeScan (DiscoverX)) EUB0000695a MAP2K7. Conditions: at 100 nM.

Experiment [6] addresses Serine/threonine-protein kinase 32C (Homo sapiens) (UniProt Q86UX6). Put plainly: Selectivity interaction (KinomeScan (DiscoverX)) EUB0000655a STK32C. Conditions: at 10 µM.
Experiment [7] deals with T4, 3-phosphoinositide-dependent protein kinase 1 (Homo sapiens) (UniProt O15530).
T4 sequence (whole entry): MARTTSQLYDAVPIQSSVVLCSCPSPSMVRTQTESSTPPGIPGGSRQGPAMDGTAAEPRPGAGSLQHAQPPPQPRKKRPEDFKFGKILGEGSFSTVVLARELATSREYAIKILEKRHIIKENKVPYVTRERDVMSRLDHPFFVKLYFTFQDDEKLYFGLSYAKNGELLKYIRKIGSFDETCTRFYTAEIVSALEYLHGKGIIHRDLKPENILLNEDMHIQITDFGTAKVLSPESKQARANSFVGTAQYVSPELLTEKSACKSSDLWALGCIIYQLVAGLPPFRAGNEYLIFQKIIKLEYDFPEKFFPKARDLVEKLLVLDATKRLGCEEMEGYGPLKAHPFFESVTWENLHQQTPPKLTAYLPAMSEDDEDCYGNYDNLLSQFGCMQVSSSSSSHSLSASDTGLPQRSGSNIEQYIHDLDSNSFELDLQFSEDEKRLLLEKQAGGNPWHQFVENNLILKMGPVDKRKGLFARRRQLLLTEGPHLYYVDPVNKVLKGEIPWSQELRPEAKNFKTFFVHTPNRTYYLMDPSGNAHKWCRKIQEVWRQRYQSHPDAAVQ
The experiment can be described thus: Selectivity interaction (KinomeScan (DiscoverX)) EUB0000618a PDPK1. The following applies: at 10 µM.

Sequence of Rho-associated protein kinase 1 (Homo sapiens) (Q13464 2-1354 limits assumed): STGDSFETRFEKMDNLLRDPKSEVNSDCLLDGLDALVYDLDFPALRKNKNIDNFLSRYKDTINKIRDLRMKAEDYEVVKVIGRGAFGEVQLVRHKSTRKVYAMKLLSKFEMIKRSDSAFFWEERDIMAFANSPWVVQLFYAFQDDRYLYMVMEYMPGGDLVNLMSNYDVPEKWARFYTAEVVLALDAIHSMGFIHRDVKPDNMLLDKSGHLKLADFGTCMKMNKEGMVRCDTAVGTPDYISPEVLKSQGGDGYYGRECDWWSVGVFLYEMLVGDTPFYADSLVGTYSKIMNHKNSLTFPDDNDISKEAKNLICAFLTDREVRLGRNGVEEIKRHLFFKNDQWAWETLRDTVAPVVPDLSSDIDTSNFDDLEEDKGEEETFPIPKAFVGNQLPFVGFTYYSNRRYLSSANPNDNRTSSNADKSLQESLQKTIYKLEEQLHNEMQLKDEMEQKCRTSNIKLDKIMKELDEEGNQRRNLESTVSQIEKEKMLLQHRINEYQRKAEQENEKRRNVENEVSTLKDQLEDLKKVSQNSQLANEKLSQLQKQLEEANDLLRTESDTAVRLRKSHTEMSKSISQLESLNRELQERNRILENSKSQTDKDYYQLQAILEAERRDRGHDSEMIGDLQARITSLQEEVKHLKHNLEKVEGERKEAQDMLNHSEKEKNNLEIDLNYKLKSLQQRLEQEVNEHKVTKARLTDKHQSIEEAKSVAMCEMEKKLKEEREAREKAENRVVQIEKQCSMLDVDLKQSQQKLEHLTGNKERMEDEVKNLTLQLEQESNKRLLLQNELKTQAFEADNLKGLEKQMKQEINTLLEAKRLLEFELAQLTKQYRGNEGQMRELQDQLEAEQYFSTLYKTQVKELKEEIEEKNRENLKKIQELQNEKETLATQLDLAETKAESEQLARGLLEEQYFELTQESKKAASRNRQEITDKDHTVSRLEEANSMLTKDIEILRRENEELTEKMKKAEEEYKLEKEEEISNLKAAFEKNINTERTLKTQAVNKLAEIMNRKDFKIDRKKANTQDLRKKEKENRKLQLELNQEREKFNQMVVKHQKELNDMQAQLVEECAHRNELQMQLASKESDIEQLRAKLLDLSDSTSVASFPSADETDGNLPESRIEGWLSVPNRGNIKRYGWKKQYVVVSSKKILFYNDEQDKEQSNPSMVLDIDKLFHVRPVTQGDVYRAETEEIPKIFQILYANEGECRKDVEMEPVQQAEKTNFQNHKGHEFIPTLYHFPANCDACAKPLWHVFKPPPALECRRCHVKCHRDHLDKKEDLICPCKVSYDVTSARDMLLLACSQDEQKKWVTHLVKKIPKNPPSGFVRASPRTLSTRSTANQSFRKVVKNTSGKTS
Sequence of Phosphorylase b kinase gamma catalytic chain, skeletal muscle/heart isoform (Homo sapiens) (Q16816 whole entry, looked up, canonical isoform): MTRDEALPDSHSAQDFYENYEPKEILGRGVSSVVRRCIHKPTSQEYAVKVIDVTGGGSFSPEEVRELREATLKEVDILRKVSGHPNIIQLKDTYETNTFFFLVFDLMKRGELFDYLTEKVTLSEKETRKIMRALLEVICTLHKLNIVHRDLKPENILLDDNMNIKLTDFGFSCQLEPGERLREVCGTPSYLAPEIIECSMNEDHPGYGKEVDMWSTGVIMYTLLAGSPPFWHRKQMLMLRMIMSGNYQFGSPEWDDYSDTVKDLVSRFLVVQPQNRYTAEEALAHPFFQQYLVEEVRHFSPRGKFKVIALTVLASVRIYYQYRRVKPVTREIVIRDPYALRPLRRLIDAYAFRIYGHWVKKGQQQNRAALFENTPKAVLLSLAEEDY
Sequence of Serine/threonine-protein kinase 32C (Homo sapiens) (Q86UX6 whole entry): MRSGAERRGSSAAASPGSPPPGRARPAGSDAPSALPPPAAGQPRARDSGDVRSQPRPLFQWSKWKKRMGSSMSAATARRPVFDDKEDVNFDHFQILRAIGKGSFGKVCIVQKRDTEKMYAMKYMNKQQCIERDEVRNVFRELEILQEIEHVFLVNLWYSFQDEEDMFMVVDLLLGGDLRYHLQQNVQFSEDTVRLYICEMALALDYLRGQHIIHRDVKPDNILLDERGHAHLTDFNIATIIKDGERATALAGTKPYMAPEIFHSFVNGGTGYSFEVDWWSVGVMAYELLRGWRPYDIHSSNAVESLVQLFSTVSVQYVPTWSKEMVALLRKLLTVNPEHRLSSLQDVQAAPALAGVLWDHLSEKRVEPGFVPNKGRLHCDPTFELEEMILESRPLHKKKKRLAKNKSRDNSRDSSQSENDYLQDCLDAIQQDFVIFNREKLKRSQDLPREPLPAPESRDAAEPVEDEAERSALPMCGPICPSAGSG

With `Cn1cc(-n2cnc3c(NCc4nc5cc(Cl)c(Cl)cc5[nH]4)nc(N4CCOCC4)nc32)cn1`, the % of control in experiment [1] is -2.3%.

Take `N#Cc1cccc(-c2c[nH]c3ncnc(N4CCOCC4)c23)c1`: the % of control in experiment [2] is 74%.

For the compound `Cc1cc(F)c(C(=O)Nc2cccc(-c3nncn3C(C)C)n2)cc1-n1cnc(C2CC2)c1`, the results for the % of control in experiment [3], in experiment [4] and in experiment [5] were 99%, 98% and 95%, respectively.

With `CN(C)CCOc1ccc(-c2nc(-c3ccncc3)c(-c3ccc4c(c3)CC/C4=N\O)[nH]2)cc1`, the % of control in experiment [6] amounted to 100%.

As for `O[C@H]1CC[C@H](Nc2ncc3nc(Nc4c(F)cc(F)cc4F)n([C@H]4CCOC4)c3n2)CC1`, the % of control in experiment [7] turned out to be 100%.
